Laboratory results published in ChEMBL document CHEMBL1201862, “PubChem BioAssay data set” (2004).
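Following 48 hours of exposure in 96-well plates, responses at five concentrations were used to interpolate endpoints linearly. GI50 marks 50% less growth.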 The source made the active and inactive calls. No stated cut-off is given here; in the data, active = GI50 up to about 1.1 µM and inactive = higher.

What was measured:
Test in all cases: growth of human tumour cells (NCI), 48 h
786-0 = tested on: 786-0
A498 = tested on: A498
A549 = tested on: A549
EKVX = tested on: EKVX
HCC 2998 = tested on: HCC 2998
HCT-116 = tested on: HCT-116
HL-60 = tested on: HL-60
IGROV-1 = tested on: IGROV-1
K562 = tested on: K562
M14 = tested on: M14
MOLT-4 = tested on: MOLT-4
NCI-H460 = tested on: NCI-H460
OVCAR-3 = tested on: OVCAR-3
OVCAR-4 = tested on: OVCAR-4
RXF 393 = tested on: RXF 393
SN12C = tested on: SN12C
SNB-75 = tested on: SNB-75
U-251 = tested on: U-251
MDA-MB-231 = tested on: MDA-MB-231
MDA-N = tested on: MDA-N

Cc1cccc2c1c1ccc3c(c1n2C)C(=O)C=CC3=O
GI50 (786-0): 1.94 µM (inactive) | GI50 (A498): 27.4 µM (inactive) | GI50 (A549): 18.9 µM (inactive) | GI50 (EKVX): 18.9 µM (inactive) | GI50 (HCC 2998): 18.2 µM (inactive) | GI50 (HCT-116): 5.86 µM (inactive) | GI50 (HL-60): 0.521 µM (active) | GI50 (IGROV-1): 18.3 µM (inactive) | GI50 (K562): 1.95 µM (inactive) | GI50 (M14): 6.22 µM (inactive) | GI50 (MOLT-4): 0.536 µM (active) | GI50 (NCI-H460): 17.3 µM (inactive) | GI50 (OVCAR-3): 2.05 µM (inactive) | GI50 (OVCAR-4): 11.8 µM (inactive) | GI50 (RXF 393): 3.48 µM (inactive) | GI50 (SN12C): 6.17 µM (inactive) | GI50 (SNB-75): 19.5 µM (inactive) | GI50 (U-251): 10.3 µM (inactive)

O=C(Nc1ccccc1C(=O)NCc1ccccc1)/C(=C/c1ccccc1)NC(=O)c1ccccc1
GI50 (786-0): 47.6 µM (inactive) | GI50 (A498): > 100 µM (inactive) | GI50 (A549): > 100 µM (inactive) | GI50 (EKVX): > 100 µM (inactive) | GI50 (HCC 2998): > 100 µM (inactive) | GI50 (HCT-116): > 100 µM (inactive) | GI50 (HL-60): > 100 µM (inactive) | GI50 (IGROV-1): > 100 µM (inactive) | GI50 (K562): > 100 µM (inactive) | GI50 (M14): > 100 µM (inactive) | GI50 (MDA-MB-231): > 100 µM (inactive) | GI50 (MOLT-4): 80.7 µM (inactive) | GI50 (OVCAR-3): > 100 µM (inactive) | GI50 (OVCAR-4): 49.3 µM (inactive) | GI50 (RXF 393): > 100 µM (inactive) | GI50 (SN12C): > 100 µM (inactive) | GI50 (SNB-75): 92.7 µM (inactive) | GI50 (U-251): > 100 µM (inactive)

CCCCCCC(=O)OC[n+]1ccc(-c2c(COC(=O)NC(C)C)c(COC(=O)NC(C)C)c3n2CCC3)cc1
GI50 (786-0): 39.6 µM (inactive) | GI50 (A498): 46.9 µM (inactive) | GI50 (A549): > 87.7 µM (inactive) | GI50 (EKVX): > 100 µM (inactive) | GI50 (HCC 2998): > 100 µM (inactive) | GI50 (HCT-116): > 89.9 µM (inactive) | GI50 (HL-60): 23.3 µM (inactive) | GI50 (IGROV-1): > 100 µM (inactive) | GI50 (K562): > 100 µM (inactive) | GI50 (M14): > 87.9 µM (inactive) | GI50 (MDA-MB-231): > 71.3 µM (inactive) | GI50 (MOLT-4): 25.2 µM (inactive) | GI50 (NCI-H460): 35.6 µM (inactive) | GI50 (OVCAR-3): > 100 µM (inactive) | GI50 (OVCAR-4): > 100 µM (inactive) | GI50 (RXF 393): > 65.8 µM (inactive) | GI50 (SN12C): 49.5 µM (inactive) | GI50 (SNB-75): > 68.1 µM (inactive) | GI50 (U-251): > 80.4 µM (inactive)

C=C(c1ccccc1)[C@@]1(O)CCCC[C@H]1NC(c1ccccc1)c1ccccc1
GI50 (786-0): 12.7 µM (inactive) | GI50 (A498): 13.9 µM (inactive) | GI50 (A549): 11.8 µM (inactive) | GI50 (EKVX): 15.3 µM (inactive) | GI50 (HCC 2998): 12.6 µM (inactive) | GI50 (HCT-116): 7.93 µM (inactive) | GI50 (HL-60): 2.65 µM (inactive) | GI50 (IGROV-1): 16.2 µM (inactive) | GI50 (K562): 7.69 µM (inactive) | GI50 (M14): 14 µM (inactive) | GI50 (MOLT-4): 2.73 µM (inactive) | GI50 (NCI-H460): 13 µM (inactive) | GI50 (OVCAR-3): 12.1 µM (inactive) | GI50 (OVCAR-4): 14.1 µM (inactive) | GI50 (RXF 393): 7.89 µM (inactive) | GI50 (SN12C): 14 µM (inactive) | GI50 (SNB-75): 28.2 µM (inactive) | GI50 (U-251): 10.7 µM (inactive)

O=C1CC(=O)c2c(N3CCCC3)sc(N3CCCC3)c21
GI50 (786-0): > 100 µM (inactive) | GI50 (A498): > 100 µM (inactive) | GI50 (A549): > 100 µM (inactive) | GI50 (EKVX): > 100 µM (inactive) | GI50 (HCC 2998): > 100 µM (inactive) | GI50 (HCT-116): > 100 µM (inactive) | GI50 (HL-60): > 100 µM (inactive) | GI50 (IGROV-1): > 100 µM (inactive) | GI50 (K562): 57.4 µM (inactive) | GI50 (M14): > 100 µM (inactive) | GI50 (MDA-N): > 100 µM (inactive) | GI50 (MOLT-4): 59 µM (inactive) | GI50 (NCI-H460): > 100 µM (inactive) | GI50 (OVCAR-3): > 100 µM (inactive) | GI50 (OVCAR-4): > 100 µM (inactive) | GI50 (RXF 393): > 100 µM (inactive) | GI50 (SN12C): > 100 µM (inactive) | GI50 (SNB-75): > 100 µM (inactive) | GI50 (U-251): > 100 µM (inactive)

COC(=O)C1(C)CC2C(C)(CCC3(C)C4=CC=C5C(=CC(=O)C(O)=C5C)C4(C)CCC23C)CC1O (centres undefined)
GI50 (786-0): 0.226 µM (active) | GI50 (A498): 1.93 µM (inactive) | GI50 (A549): 2.29 µM (inactive) | GI50 (EKVX): 1.3 µM (inactive) | GI50 (HCC 2998): 1.56 µM (inactive) | GI50 (HCT-116): 0.564 µM (active) | GI50 (HL-60): 0.216 µM (active) | GI50 (IGROV-1): 0.331 µM (active) | GI50 (K562): 0.284 µM (active) | GI50 (M14): 1.26 µM (inactive) | GI50 (MDA-MB-231): 0.577 µM (active) | GI50 (MOLT-4): 0.285 µM (active) | GI50 (NCI-H460): 1.79 µM (inactive) | GI50 (OVCAR-3): 0.774 µM (active) | GI50 (OVCAR-4): 1.61 µM (inactive) | GI50 (RXF 393): 0.429 µM (active) | GI50 (SN12C): 1.49 µM (inactive) | GI50 (SNB-75): 1.92 µM (inactive) | GI50 (U-251): 1.09 µM (active)

CC1CC(C)(C)CC(OCCN2CCCCC2)(c2ccccc2)C1 (centres undefined)
GI50 (786-0): 10.1 µM (inactive) | GI50 (A498): 12.8 µM (inactive) | GI50 (A549): 11 µM (inactive) | GI50 (EKVX): 5.51 µM (inactive) | GI50 (HCT-116): 4.4 µM (inactive) | GI50 (HL-60): 11.4 µM (inactive) | GI50 (IGROV-1): 13.2 µM (inactive) | GI50 (K562): 13 µM (inactive) | GI50 (M14): 3.21 µM (inactive) | GI50 (MDA-MB-231): 11.4 µM (inactive) | GI50 (NCI-H460): 4.21 µM (inactive) | GI50 (OVCAR-3): 10.4 µM (inactive) | GI50 (OVCAR-4): 11.3 µM (inactive) | GI50 (RXF 393): 10.9 µM (inactive) | GI50 (SN12C): 12 µM (inactive) | GI50 (SNB-75): 15.1 µM (inactive) | GI50 (U-251): 11.6 µM (inactive)

O=C1C=Cc2cscc21
GI50 (786-0): 16.4 µM (inactive) | GI50 (A498): > 100 µM (inactive) | GI50 (A549): 62.7 µM (inactive) | GI50 (EKVX): 46.5 µM (inactive) | GI50 (HCT-116): 15.3 µM (inactive) | GI50 (HL-60): 29 µM (inactive) | GI50 (IGROV-1): 32.4 µM (inactive) | GI50 (K562): 31.9 µM (inactive) | GI50 (M14): 26.4 µM (inactive) | GI50 (MDA-MB-231): 31.8 µM (inactive) | GI50 (MOLT-4): 14.3 µM (inactive) | GI50 (NCI-H460): > 100 µM (inactive) | GI50 (OVCAR-3): 21.5 µM (inactive) | GI50 (OVCAR-4): 81.3 µM (inactive) | GI50 (RXF 393): 16.6 µM (inactive) | GI50 (SN12C): 28.1 µM (inactive) | GI50 (SNB-75): 42.5 µM (inactive) | GI50 (U-251): 37.9 µM (inactive)

COc1cc(/C=C2\[C@@H]3NC(Cc4c(OC)c(C)c(OC)c(OC)c43)C(=O)N2Cc2ccccc2)c(OC)c(C)c1OC
GI50 (786-0): 48.6 µM (inactive) | GI50 (A498): 30.9 µM (inactive) | GI50 (A549): 41.5 µM (inactive) | GI50 (EKVX): 29.4 µM (inactive) | GI50 (HCC 2998): 38.6 µM (inactive) | GI50 (HCT-116): 37.5 µM (inactive) | GI50 (HL-60): 24.6 µM (inactive) | GI50 (IGROV-1): 34.1 µM (inactive) | GI50 (K562): 34.3 µM (inactive) | GI50 (M14): 31.3 µM (inactive) | GI50 (MOLT-4): 27.5 µM (inactive) | GI50 (NCI-H460): 21.6 µM (inactive) | GI50 (OVCAR-3): 31.7 µM (inactive) | GI50 (OVCAR-4): 32.3 µM (inactive) | GI50 (RXF 393): 23 µM (inactive) | GI50 (SN12C): 40.3 µM (inactive) | GI50 (SNB-75): 27.7 µM (inactive) | GI50 (U-251): 35.2 µM (inactive)

COc1cccc2c1NC(=O)Cc1c-2[nH]c2ccccc12
GI50 (786-0): > 100 µM (inactive) | GI50 (A498): > 100 µM (inactive) | GI50 (A549): > 100 µM (inactive) | GI50 (EKVX): > 100 µM (inactive) | GI50 (HCC 2998): > 100 µM (inactive) | GI50 (HL-60): > 100 µM (inactive) | GI50 (IGROV-1): > 100 µM (inactive) | GI50 (K562): 53.1 µM (inactive) | GI50 (M14): > 100 µM (inactive) | GI50 (MDA-MB-231): > 100 µM (inactive) | GI50 (MOLT-4): 13.6 µM (inactive) | GI50 (NCI-H460): 35.1 µM (inactive) | GI50 (OVCAR-3): > 100 µM (inactive) | GI50 (OVCAR-4): 98.2 µM (inactive) | GI50 (RXF 393): > 100 µM (inactive) | GI50 (SNB-75): > 100 µM (inactive) | GI50 (U-251): > 100 µM (inactive)

Oc1ccc(CCc2cc(O)cc(O)c2)cc1 [DIHYDRORESVERATROL]
GI50 (786-0): > 100 µM (inactive) | GI50 (A498): > 100 µM (inactive) | GI50 (A549): > 100 µM (inactive) | GI50 (EKVX): 50.5 µM (inactive) | GI50 (HCT-116): > 100 µM (inactive) | GI50 (HL-60): 50.4 µM (inactive) | GI50 (IGROV-1): > 100 µM (inactive) | GI50 (K562): 80.7 µM (inactive) | GI50 (M14): > 100 µM (inactive) | GI50 (MDA-MB-231): 23.7 µM (inactive) | GI50 (MOLT-4): 90.2 µM (inactive) | GI50 (NCI-H460): > 100 µM (inactive) | GI50 (OVCAR-3): > 100 µM (inactive) | GI50 (OVCAR-4): > 100 µM (inactive) | GI50 (RXF 393): > 100 µM (inactive) | GI50 (SN12C): 72.3 µM (inactive) | GI50 (SNB-75): > 100 µM (inactive) | GI50 (U-251): > 100 µM (inactive)
